Experimental data from US20240308973A1, “PHOSPHODIESTERASE 3 (PDE3) INHIBITORS” (Zoetis Services LLC, priority 2023, published 2024).

The molecules below were run against dog PDE3A recombinant enzyme (Canis lupus familiaris, UniProt A0A8I3NYE0) (assay: cPDE3A assay (fluorescent polarization)). Details: canine PDE3A, read-out: cPDE3 Inhibition (IC50).
Type: biochemical
Description: cPDE3A Assay (Fluorescent Polarization)
The canine PDE3A assay kit was purchased from BPS Bioscience (San Diego, CA) which included dog PDE3A recombinant enzyme, FAM-cyclic-3′,5′-AMP (20 μM), PDE3 assay buffer, binding agent, binding agent diluent and microtiter 96-well plates. Compounds were initially dissolved in DMSO. The stock concentration was subsequently diluted in cPDE assay buffer (10× stock) and serially diluted to give a concentration response curve starting at 10 μM (≥7 total concentrations). Following the serial dilution, compound solution (0.1% final DMSO) was transferred to an assay plate (96-well) where the remaining canine PDE3A assay reagents were dispensed according to the BPS Bioscience® protocol (catalog #79735) procedure using a final concentration of 5 pg/μL of enzyme. Each compound was evaluated for the inhibition of the canine PDE3A enzyme activity using the measurement of fluorescent polarization changes. The 50% inhibition concentration (IC50) nM was calculated and reported.

Chain of dog PDE3A recombinant enzyme (A0A8I3NYE0 1-1135): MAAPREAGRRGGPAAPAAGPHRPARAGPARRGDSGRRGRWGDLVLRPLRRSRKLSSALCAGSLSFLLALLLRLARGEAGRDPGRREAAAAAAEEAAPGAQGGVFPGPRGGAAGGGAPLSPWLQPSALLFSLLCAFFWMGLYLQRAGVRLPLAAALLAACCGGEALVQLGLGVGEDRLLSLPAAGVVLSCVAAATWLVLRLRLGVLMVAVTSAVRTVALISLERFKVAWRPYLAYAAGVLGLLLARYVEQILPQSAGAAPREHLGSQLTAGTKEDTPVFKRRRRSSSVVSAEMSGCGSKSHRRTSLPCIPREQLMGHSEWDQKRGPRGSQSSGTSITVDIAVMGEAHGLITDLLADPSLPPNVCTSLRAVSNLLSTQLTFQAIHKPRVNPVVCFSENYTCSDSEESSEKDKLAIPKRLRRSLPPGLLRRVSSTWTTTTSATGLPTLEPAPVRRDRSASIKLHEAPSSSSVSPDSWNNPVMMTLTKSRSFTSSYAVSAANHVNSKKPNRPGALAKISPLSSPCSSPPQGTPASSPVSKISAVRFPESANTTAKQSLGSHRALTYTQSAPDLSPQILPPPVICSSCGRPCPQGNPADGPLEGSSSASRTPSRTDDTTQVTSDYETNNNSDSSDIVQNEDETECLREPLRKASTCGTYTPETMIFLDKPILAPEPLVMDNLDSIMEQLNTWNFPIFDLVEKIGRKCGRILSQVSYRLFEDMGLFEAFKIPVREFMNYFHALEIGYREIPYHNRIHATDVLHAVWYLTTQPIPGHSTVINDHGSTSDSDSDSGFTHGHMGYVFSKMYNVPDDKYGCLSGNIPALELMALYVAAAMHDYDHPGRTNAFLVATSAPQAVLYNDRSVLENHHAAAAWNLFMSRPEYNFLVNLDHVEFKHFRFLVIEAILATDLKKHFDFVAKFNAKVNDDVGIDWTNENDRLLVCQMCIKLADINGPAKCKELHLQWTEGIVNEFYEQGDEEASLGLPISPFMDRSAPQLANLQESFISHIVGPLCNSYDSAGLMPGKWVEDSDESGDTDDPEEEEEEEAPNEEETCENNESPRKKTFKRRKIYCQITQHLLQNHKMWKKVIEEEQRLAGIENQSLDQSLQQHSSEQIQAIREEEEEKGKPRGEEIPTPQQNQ

SMILES	IC50 [µM]
COc1ccc(-c2cc(C3=NNC(=O)CC3C)cc3c2NC(=O)CC3)cn1 (centres unmarked) [compound 14, 8-(6-methoxypyridin-3-yl)-6-(4-methyl-6-oxo-1,4,5,6-tetrahydropyridazin-3-yl)-3,4-dihydroquinolin-2 (1H)-one]	0.0502
CC1SC(=O)NN=C1c1cc(Br)c2c(c1)CCC(=O)N2 (centres unmarked) [Example #65, 5-(8-bromo-2-oxo-1,2,3,4-tetrahydroquinolin-6-yl)-6-methyl-3,6-dihydro-2H-1,3,4-thiadiazin-2-one]	0.0043
CC1CC(=O)NN=C1c1cc(F)c2nc(N)sc2c1 (centres unmarked) [Example #31, 6-(2-amino-4-fluorobenzo[d]thiazol-6-yl)-5-methyl-4,5-dihydropyridazin-3 (2H)-one]	0.0055
CC1CC(=O)NN=C1c1cc(C#N)c2c(c1)CC(=O)N2 (centres unmarked) [compound 53, 5-(4-methyl-6-oxo-1,4,5,6-tetrahydropyridazin-3-yl)-2-oxoindoline-7-carbonitrile]	0.0327
CC1CC(=O)NN=C1c1cc2c(c(-c3nccs3)c1)NC(=O)CCC2 (centres unmarked) [compound 20, 7-(4-methyl-6-oxo-1,4,5,6-tetrahydropyridazin-3-yl)-9-(thiazol-2-yl)-1,3,4,5-tetrahydro-2H-benzo[b]azepin-2-one]	0.0324
Cc1cc(C2=NNC(=O)CC2)cc2sc(=O)[nH]c12 [compound 15, 4-methyl-6-(6-oxo-1,4,5,6-tetrahydropyridazin-3-yl)benzo[d]thiazol-2 (3H)-one]	0.0176
CC1CC(=O)NN=C1c1cc(F)c2c(c1)C1(CCC1)C(=O)N2 (centres unmarked) [Example #43, 7′-fluoro-5′-(4-methyl-6-oxo-1,4,5,6-tetrahydropyridazin-3-yl)spiro[cyclobutane-1,3′-indolin]-2′-one]	0.0355
CC1CC(=O)NN=C1c1cc(Cl)c2[nH]c(=O)ccc2c1 (centres unmarked) [Example #35, 8-chloro-6-(4-methyl-6-oxo-1,4,5,6-tetrahydropyridazin-3-yl)quinolin-2 (1H)-one]	0.0032
CC1CC(=O)NN=C1c1cc(Br)c2c(c1)C(C)(C)CC(=O)N2 (centres unmarked) [compound 11, 8-bromo-4,4-dimethyl-6-(4-methyl-6-oxo-1,4,5,6-tetrahydropyridazin-3-yl)-3,4-dihydroquinolin-2 (1H)-one]	0.0513
COc1ncc(-c2cc(C3=NNC(=O)CC3C)cc3c2NC(=O)CC3)s1 (centres unmarked) [Example #4, 8-(2-methoxythiazol-5-yl)-6-(4-methyl-6-oxo-1,4,5,6-tetrahydropyridazin-3-yl)-3,4-dihydroquinolin-2 (1H)-one]	0.0248
CC1CC(=O)NN=C1c1cc(Cl)c2[nH]c(=O)n(C)c2c1 (centres unmarked) [Example #42, 4-chloro-1-methyl-6-(4-methyl-6-oxo-1,4,5,6-tetrahydropyridazin-3-yl)-1,3-dihydro-2H-benzo[d]imidazol-2-one]	0.0162
Cc1cc(C2=NNC(=O)SC2C)cc2c1NC(=O)CC2 (centres unmarked) [compound 83, 6-methyl-5-(8-methyl-2-oxo-1,2,3,4-tetrahydroquinolin-6-yl)-3,6-dihydro-2H-1,3,4-thiadiazin-2-one]	0.0032
CC1(C)C(=O)Nc2c(Cl)cc(C3=NNC(=O)CC3)cc21 [Example #44, 7-chloro-3,3-dimethyl-5-(6-oxo-1,4,5,6-tetrahydropyridazin-3-yl)indolin-2-one]	0.094
C[C@@H]1CC(=O)NN=C1c1cc(Cl)c2c(c1)C(C)(C)C(=O)N2 [Example #33, (R)-7-chloro-3,3-dimethyl-5-(4-methyl-6-oxo-1,4,5,6-tetrahydropyridazin-3-yl)indolin-2-one]	0.0032
CC1CC(=O)NN=C1c1cc(Cl)c2c(c1)C(C)(C)NC2=O (centres unmarked) [Example #41, 7-chloro-3,3-dimethyl-5-(4-methyl-6-oxo-1,4,5,6-tetrahydropyridazin-3-yl)isoindolin-1-one]	0.0154
CC1SC(=O)NN=C1c1cc(Cl)c2c(c1)CCCC(=O)N2 (centres unmarked) [compound 64, 5-(9-chloro-2-oxo-2,3,4,5-tetrahydro-1H-benzo[b]azepin-7-yl)-6-methyl-3,6-dihydro-2H-1,3,4-thiadiazin-2-one]	0.0032
O=c1[nH]nc(-c2cc(Cl)c3[nH]c(=O)sc3c2)s1 [compound 88, 4-chloro-6-(5-oxo-4,5-dihydro-1,3,4-thiadiazol-2-yl)benzo[d]thiazol-2 (3H)-one]	0.0292
CC1SC(=O)NN=C1c1cc(Cl)c2nc(O)ccc2c1 (centres unmarked) [compound 81, 5-(8-chloro-2-hydroxyquinolin-6-yl)-6-methyl-3,6-dihydro-2H-1,3,4-thiadiazin-2-one]	0.0032
CC1SC(=O)NN=C1c1cc2c(c(-c3ccc(S(C)(=O)=O)cc3)c1)NC(=O)C2 (centres unmarked) [Example #63, 6-methyl-5-(7-(4-(methylsulfonyl)phenyl)-2-oxoindolin-5-yl)-3,6-dihydro-2H-1,3,4-thiadiazin-2-one]	0.0305
CC1SC(=O)NN=C1c1cc(Cl)c2c(c1)CS(=O)(=O)N2 (centres unmarked) [compound 82, 5-(7-chloro-2,2-dioxido-1,3-dihydrobenzo[c]isothiazol-5-yl)-6-methyl-3,6-dihydro-2H-1,3,4-thiadiazin-2-one]	0.0264
CC1(C)C(=O)Nc2c(Cl)cc(-c3n[nH]c(=O)s3)cc21 [compound 89, 5-(7-chloro-3,3-dimethyl-2-oxoindolin-5-yl)-1,3,4-thiadiazol-2 (3H)-one]	0.0253
O=C1Cc2cc(-c3ccc(=O)[nH]n3)cc(-c3ccc(Cl)cc3)c2N1 [Example #7, 7-(4-chlorophenyl)-5-(6-oxo-1,6-dihydropyridazin-3-yl)indolin-2-one]	0.0406
C[C@@H]1SC(=O)NN=C1c1cc(F)c2c(c1)CC(=O)N2 [Example #78, (S)-5-(7-fluoro-2-oxoindolin-5-yl)-6-methyl-3,6-dihydro-2H-1,3,4-thiadiazin-2-one]	0.0078
CC1SC(=O)NN=C1c1cc(Cl)c2c(c1)C(C)(C)NC2=O (centres unmarked) [Example #80, 5-(7-chloro-3,3-dimethyl-1-oxoisoindolin-5-yl)-6-methyl-3,6-dihydro-2H-1,3,4-thiadiazin-2-one]	0.0206

The remaining molecules from weak to strong by IC50, led by results:

IC50 [µM]	SMILES
0.112	O=C1Cc2cc(-c3cc(Cl)c4[nH]c(=O)oc4c3)cnc2N1 [Example #84, 4-chloro-6-(2-oxo-2,3-dihydro-1H-pyrrolo[2,3-b]pyridin-5-yl)benzo[d]oxazol-2 (3H)-one]
0.0486	COC1CN(c2nc3ccc(C4=NNC(=O)CC4C)cc3s2)C1 (centres unmarked) [compound 49, 6-(2-(3-methoxyazetidin-1-yl)benzo[d]thiazol-6-yl)-5-methyl-4,5-dihydropyridazin-3 (2H)-one]
0.0444	CC1CC(=O)NN=C1c1cc2c(c(-c3cccnc3)c1)NC(=O)CC2 (centres unmarked) [Example #13, 6-(4-methyl-6-oxo-1,4,5,6-tetrahydropyridazin-3-yl)-8-(pyridin-3-yl)-3,4-dihydroquinolin-2 (1H)-one]
0.0416	CC1SC(=O)NN=C1c1cc(C#N)c2c(c1)CC(=O)N2 (centres unmarked) [Example #77, 5-(6-methyl-2-oxo-3,6-dihydro-2H-1,3,4-thiadiazin-5-yl)-2-oxoindoline-7-carbonitrile]
0.0331	CC1CC(=O)NN=C1c1ccc2nc(Oc3ccc4ncsc4c3)[nH]c2c1 (centres unmarked) [compound 22, 6-(2-(benzo[d]thiazol-6-yloxy)-1H-benzo[d]imidazol-6-yl)-5-methyl-4,5-dihydropyridazin-3 (2H)-one]
0.0235	CC1CC(=O)NN=C1c1cc2c(c(-c3nccs3)c1)NC(=O)CC2 (centres unmarked) [Example #2, 6-(4-methyl-6-oxo-1,4,5,6-tetrahydropyridazin-3-yl)-8-(thiazol-2-yl)-3,4-dihydroquinolin-2 (1H)-one]
0.012	CC1CC(=O)NN=C1c1cc(C#N)c2[nH]c(=O)ccc2c1 (centres unmarked) [Example #40, 6-(4-methyl-6-oxo-1,4,5,6-tetrahydropyridazin-3-yl)-2-oxo-1,2-dihydroquinoline-8-carbonitrile]
0.0109	CC1SC(=O)NN=C1c1cc(Br)c2c(c1)CC(=O)N2 (centres unmarked) [compound 69, 5-(7-bromo-2-oxoindolin-5-yl)-6-methyl-3,6-dihydro-2H-1,3,4-thiadiazin-2-one]
0.0074	C[C@@H]1CC(=O)NN=C1c1cc(F)c2c(c1)CC(=O)N2 [compound 54, (R)-7-fluoro-5-(4-methyl-6-oxo-1,4,5,6-tetrahydropyridazin-3-yl)indolin-2-one]
0.0047	Cc1cc(C2=NNC(=O)S[C@@H]2C)cc2ccc(O)nc12 [compound 60, (R)-5-(2-hydroxy-8-methylquinolin-6-yl)-6-methyl-3,6-dihydro-2H-1,3,4-thiadiazin-2-one]
0.0036	CC1CC(=O)NN=C1c1cc2c(c(Cl)c1F)NC(=O)C2(C)C (centres unmarked) [Example #36, 7-chloro-6-fluoro-3,3-dimethyl-5-(4-methyl-6-oxo-1,4,5,6-tetrahydropyridazin-3-yl)indolin-2-one]
0.0034	CC1CC(=O)NN=C1c1cc(F)c2nc(NCc3cnn(C)c3)sc2c1 (centres unmarked) [Example #46, 6-(4-fluoro-2-(((1-methyl-1H-pyrazol-4-yl)methyl)amino)benzo[d]thiazol-6-yl)-5-methyl-4,5-dihydropyridazin-3 (2H)-one]
0.0034	CC1(C)C(=O)Nc2c(Cl)cc(-c3cnc4c(c3)CCC(=O)N4)cc21 [Example #87, 6-(7-chloro-3,3-dimethyl-2-oxoindolin-5-yl)-3,4-dihydro-1,8-naphthyridin-2 (1H)-one]
0.0032	CC1CC(=O)NN=C1c1cc(Br)c2c(c1)CCC(=O)N2 (centres unmarked) [Example #3, 8-bromo-6-(4-methyl-6-oxo-1,4,5,6-tetrahydropyridazin-3-yl)-3,4-dihydroquinolin-2 (1H)-one]
